Results on four molecules are retold here after patent US7465789B2, “Adenosine receptor” (Schering Corporation, priority 2001, dated 2008).

Experiment [1] has as its target T1, SP166 (Homo sapiens, UniProt Q9BXA5, L244P).
T1 construct: expressed in transfected cells; host or cells: BAF/3 (murine IL-3 dependent B-cell line), retroviral transduction, G418 selection
T1 sequence (Q9BXA5 1-334 L244P): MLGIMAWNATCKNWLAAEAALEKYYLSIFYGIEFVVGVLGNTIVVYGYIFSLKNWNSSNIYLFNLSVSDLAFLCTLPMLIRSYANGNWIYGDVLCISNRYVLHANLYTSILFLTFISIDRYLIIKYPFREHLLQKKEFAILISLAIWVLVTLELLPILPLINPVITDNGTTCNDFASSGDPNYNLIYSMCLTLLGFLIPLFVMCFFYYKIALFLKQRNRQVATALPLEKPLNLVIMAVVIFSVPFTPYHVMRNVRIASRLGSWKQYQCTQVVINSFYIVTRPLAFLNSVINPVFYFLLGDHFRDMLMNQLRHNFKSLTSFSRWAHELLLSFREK
The experiment in a line: FLIPR intracellular Ca++ flux assay in BAF/3 cells stably transfected with SP166. In kind it is cell-based.

In a further experiment the test system is mock transfected cells. The experiment in a line: FLIPR intracellular Ca++ flux assay in mock transfected cells.
Experiment [2] deals with T1, SP166. The experiment in a line: Radioligand saturation and competition binding assay with [3H]-NECA on membranes of cells transfected with SP166. The note with it: radioligand saturation and competition assays. The procedure:
Membrane preparation: Cells transfected with SP166 as described above were harvested by incubating in 5 mM EDTA/phosphate-buffered saline followed by repeated pipetting. The cells were centrifuged 5 min at 1000×g. The EDTA/PBS was decanted and an equal volume of ice-cold 50 mM Tris-HCl, pH 7.5, was added and cells were broken up with a Polytron (PT10 tip, setting 5, 30 sec). Nuclei and unbroken cells were sedimented at 1000×g for 10 min and then the supernatant was centrifuged at 50,000×g for 10 min. The supernatant was decanted, the pellet was resuspended by Polytron, a sample was taken for protein assay (bicinchoninic acid, Pierce), and the tissue was again centrifuged at 50,000×g. Pellets were stored frozen at […].
Binding assay: For saturation binding, four concentrations of [^3H]-NECA were incubated without and with 10^−5 M adenosine in triplicate with 50 ug of membrane protein in a total volume of 200 μl of 50 mM Tris-HCl, pH 7.5, for 30 min at 30° C. Samples were filtered on GF/B filters and washed thrice with 2 ml of cold Tris buffer. Filters were dried in a microwave oven, impregnated with Meltilex wax scintillant, and counted at 45% efficiency. For competition binding assays, five concentrations of compounds were incubated in triplicate with 18 nM [^3H]NECA and 70 μg of membrane protein under the conditions described above. […]

Method for mock transfected cells: To generate stable transfectants, full-length expression constructs were made in the murine IL-3 dependent B-cell line, BAF/3. Human SP166 was cloned into the retroviral vector, pMX-CD8-myc with 5′ EcoR1 and 3′ Not1 sites. […] To generate high-titer retroviral stock, the ecotropic packaging line BOSC 23 was used as described (Onishi, et al. 1996). Culture supernatants from these cells, containing viral particles, were used to infect BAF/3 cells. Transfectants underwent selection with 1 mg/ml G418 and were further enriched by fluorescence-activated cell sorting and single cell cloning using anti-myc antibody to the N-terminal myc tag.
For the assay, growth media was removed and replaced with medium containing RPMI, 10% FBS, and 1 mM Fluo3-AM (Sigma) (dissolved in 10% pluronic acid in DMSO). […] 50,000 cells in a volume of 100 ml were added to the plates, and the plates were placed into a Fluorescent Imaging Plate Reader (FLIPR, Molecular Devices) equilibrated to 37° C. In the FLIPR, changes in intracellular [Ca^++] levels were measured by excitation of Fluo3 fluorescence at 488 nm while fluorescence output was monitored at 500-560 nm. Fluorescence was monitored once per second for 1 minute, and every 6 seconds for 2 minutes thereafter. […] Values extracted for data analysis represented the maximal fluorescence value minus the minimal fluorescence value detected following, the drug addition. […]

`Nc1ncnc2c1ncn2[C@@H]1O[C@H](CO)[C@@H](O)[C@H]1O` [adenosine]: the “activation of SP166 (change in intracellular Ca++)” value on SP166 [1] (naturally occurring nucleotides and nucleosides examined, SP166-transfected BAF/3 cells) was “specifically activated”. For the same molecule, the “activation by adenosine in mock transfected cells” value with mock transfected cells is “not observed”. Moreover, on SP166 [2], the “binding to the cloned receptor” value was “able to bind”. Regarding (R)α-methyladenosine, the “activation of SP166 by adenosine analogs” value on SP166 [1] is “able to activate”.

Consider (S)α-methyladenosine, for which the “activation of SP166 by adenosine analogs” value at SP166 [1] was “inactive”. The same measure, in the same setting: with Nα-methyladenosine the entry was “able to activate”.
